Results published in patent publication US10834950B2, “Organic compounds” (GIVAUDAN SA, priority 2013, dated 2020).

Tests used:
[1] = Umami base flavour (aqueous NaCl, MSG, ribonucleotides) tasting by panel
[2] = Beef bouillon tasting by a panel of experienced tasters; conditions: 40 ppb added to beef bouillon
Description: A beef bouillon was prepared using bouillon cubes obtained from a local supermarket.

[3] = Diluted soy sauce tasting by panel; conditions: 5 ppm added to diluted soy sauce
[4] = Milk drink (semi skim milk) tasting by panel; conditions: 5 ppm added to semi skim milk drink
[5] = 5 ppm added to umami base flavour

Compound: CCCCCCCCCCCC(=O)NC(Cc1ccccc1)C(=O)O (stereo not drawn) [Example 3, 2-(Dodecanoylamino)-3-phenylpropanoic acid]
- taste of umami base compared to the reference (panel) ([1]; 50 ppm added to umami base flavour): more umami, and thicker, possessed a lot of mouthfeel and a nice body, and provided a cleaner taste than the reference

Compound: CCCCCC/C=C\CCCC(=O)NC(Cc1ccc(O)cc1)C(=O)O (stereo not drawn) [Example 2, (Z)-2-(Dodec-5-enamido)-3-(4-hydroxyphenyl)propanoic acid]
- taste of bouillon compared to the reference (panel) [2]: slightly more umami, slightly more bitter and sweeter than the reference

Compound: CCCCCCCCCCCC(=O)NC(Cc1c[nH]c2ccccc12)C(=O)O (stereo not drawn) [2-(dodecanoylamino)-3-(1H-indol-3-yl)propanoic acid]
- taste of umami base compared to the reference (panel) ([1]; 20 ppm added to umami base flavour): more fatty mouthfeel than the reference

Compound: CCCCCC/C=C\CCCC(=O)NC(Cc1ccccc1)C(=O)O (stereo not drawn) [Example 1, (Z)-2-(Dodec-5-enamido)-3-phenylpropanoic acid]
- taste of bouillon compared to the reference (panel) [2]: more umami, slightly more sweet, and the overall flavor profile lasts longer than the reference

Compound: CCCCCCCCCCCCCC(=O)NC(Cc1c[nH]c2ccccc12)C(=O)O (stereo not drawn) [3-(1H-indol-3-yl)-2-tetradecanamidopropanoic acid]
- taste of soy sauce compared to the reference (panel) [3]: more mouthfeel, and fuller compared to the reference
- taste of milk drink compared to the reference (panel) [4]: very creamy aftertaste, and a nice and slightly dryness at the front compared to the reference
- taste of umami base compared to the reference (panel) [1, 5]: more umami than the reference

Compound: CCCCCC/C=C\CCCC(=O)NC(Cc1c[nH]c2ccccc12)C(=O)O (stereo not drawn) [(Z)-2-(dodec-5-enamido)-3-(1H-indol-3-yl)propanoic acid]
- taste of milk drink compared to the reference (panel) [4]: slightly increased creamy than the reference
- taste of umami base compared to the reference (panel) [1, 5]: more umami than the reference
